Laboratory results from patent publication US20090175905A1, “TRANSFECTION REAGENT AND METHOD FOR ENHANCING TRANSFECTION EFFICIENCY” (National Taiwan University of Science and Technology, priority 2008, published 2009).
Read-outs that look alike come from different tables or passages of the source.

Experiments:
lung tissues = experiment: In vivo transfection by tail vein injection of gWiz-luciferase plasmid with lipid-based vectors plus disaccharides, luciferase activity in lung; design: species or system mouse; settings: for effect on transfection efficiency (luminescent intensity, lung): DOTAP, DOTAP/Chol or LPD vector, i.v.
Description: FIG. 4A presents the effects of disaccharides on the transgene expression after intravenous injection of DOTAP-based vectors with various disaccharides by way of mouse tail vein. Various concentrations of […] and […] are respectively incorporated into the transfection reagent containing the gWiz-luciferase plasmid and DOTAP liposomes. The transfection reagent is administered via intravenous injection through the tail vein of a 4-6 weeks old ICR (CD-1) […]. The […] is sacrificed 24 hour after the intravenous injection, and the activity of luciferase in the lung tissues of the […] is observed. The x-axis in FIG. 4A represents the disaccharide concentration in the tranfection reagent, and the y-axis in FIG. 4 represents the luminescent intensity, measured by a luminometer and expressed as relative light unit (RLU) per mg of lung tissue protein. The luminescent intensity is used as an indicator of transfection efficiency. […] Accordingly, cellobiose and trehalose can improve the efficiency of cell transfection in vivo, and the transfection efficiency increases as the concentration of the disaccharide increases. FIG. 4B presents the effects of disaccharides on the transgene expression after intravenous injection of different lipid-based vectors with various disaccharides by way of mouse tail vein. DOTAP, DOTAP/chol and LPD are respectively added as a vector into the tranfection reagent containing gWiz-luciferase plasmid. A concentration of 330 mM cellobiose or trehalsoe is incorporated into the transfection reagent. The transfection reagent is then intravenously injected into the animal for cell transfection. The x-axis in FIG. 4B represents the type of the lipid-based vector, and the y-axis in FIG. 4B represents the luminescent intensity, measured by a luminometer and expressed as relative light unit (RLU) per mg of lung tissue protein.

[1] = test system: Chinese hamster ovary (CHO) cells; experiment: In vitro transfection of CHO cells with different lipid-based vectors plus disaccharides, GFP-positive percentage; assay type: cell-based; settings: 120 mM disaccharide; DOTAP, DOTAP/Chol, DOTAP/DOPE, DC-Chol/DOPE or LPD vector
Excerpt: FIGS. 3A and 3B present the effects of disaccharides on the transgene expression of cultured Chinese hamster ovary (CHO) cells subjected to an in vitro transfection of DNA with a transfection reagent containing different lipid-based vectors plus different disaccharides. The x-axis in FIGS. 3A and 3B represents the lipid composition, and the y-axis represents the GFP-positive percentage of the transfected CHO cells, which is used as an indicator for transfection efficiency. In the experiments shown in FIGS. 3A and 3B, DOTAP, DOTAP/Chol, DOTAP/DOPE, DC-Chol/DOPE or LPD applied as a vector is incorporated into a pEGFP-C1 plasmid-containing transfection reagent. Thereafter, 120 mM of various disaccharides is incorporated into the transfection reagent, and in vitro cell transfection is performed followed by detecting the cell percentage of GFP expression.

CHO cells [2] = test system: CHO cells
Description: (§3) FIG. 5 presents the effects of disaccharides on the cellular cytotoxicity of the in vitro cultured CHO cells transfected with transfection reagents containing lipid-based carriers.

[3] = test system: Chinese hamster ovary (CHO) cells; experiment: In vitro transfection of CHO cells with pEGFP-C1 plasmid and DOTAP liposomes plus disaccharides, GFP by flow cytometer; assay type: cell-based; settings: DOTAP liposomes; for effect on transfection efficiency: appropriate amount of disaccharide
Excerpt: FIG. 2 present the effects of disaccharides on the transgene expression of cultured Chinese hamster ovary (CHO) cells subjected to an in vitro transfection of DNA with a transfection reagent containing DOTAP and various disaccharides. The x-axis in FIG. 2 refers to the disaccharide concentration in the transfection reagent, and the y-axis in FIG. 2 represents the GFP (green fluorescent protein)-positive percentage of the transfected CHO cells measured by a flow cytometer. The GFP-positive percentage of the CHO cells is used as an indicator of transfection efficiency. In the experiments shown in FIG. 2, various concentrations of cellobiose, lactose, sucrose, trehalose and maltose are respectively incorporated into a transfection reagent containing pEGFP-C1 plasmid and DOTAP liposomes, and in vitro transfections are performed with the transfection reagents containing different disaccharides. The GFP-positive percentage of CHO cells is then detected for each transfection reagent sample. […] In other words, the incorporation of a disaccharide into the transfection reagent affects the transfection efficiency. Moreover, the changes in transfection efficiency are related to the type and the concentration of the disaccharide in the transfection reagent. […] More particularly, the transfection efficiency increases from 28% to more than 40% at 180 mM of lactose, sucrose or trehalose in a transfection reagent. The transfection efficiency is doubled when 120 mM of cellobiose is incorporated into a transfection reagent.

mouse muscles = experiment: In vivo transfection of muscles by direct intramuscular injection of naked plasmid plus disaccharides, luciferase luminescence; settings: for luminescent intensity (RLU per mg of muscular tissue protein) versus control group without disaccharides: 10 mM disaccharide
Description: The following experiments are conducted using naked nucleic acid delivery system for directly transfecting plasmid DNA into the cells of animals, and additional viral or non-viral vector is precluded. The transfection reagent is incorporated with various concentrations of disaccharides as an enhancer, and the effects of disaccharides in the naked nucleic acid delivery system on the cell transfection are observed.
FIG. 9 presents the effects of various disaccharides on the transgene expression of mouse muscles after direct intramuscular injection of naked plasmid. The transfection procedures in these experiments are identical to those described previously in experiment 3. The major differences between the two experiments are the vector applied and the method of transfection as well as the administration route into the body of the […]. The x-axis in FIG. 9 represents the types of disaccharides, and the y-axis represents the luminescent intensity, measured by a luminometer and expressed as relative light unit (RLU) per mg of muscular tissue protein, wherein the luminescent intensity is used as an indicator to evaluate the transfection efficiency.
FIG. 10 presents the effects of trehalose concentrations on the transgene expression of mouse muscles after direct intramuscular injection of naked plasmid. The x-axis in FIG. 10 represents the concentrations of trehalose in the transfection reagent, and the y-axis represents the luminescent intensity, measured by a luminometer and expressed as relative light unit (RLU) per mg of muscular tissue protein. The luminescent intensity is used as an indicator to evaluate transfection efficiency.
[…] presents the effects of gene dosage on the transgene expression of mouse muscles in the presence of trehalose after direct intramuscular injection of naked plasmid. The x-axis in FIG. 11 represents the amount of DNA plasmid, and the y-axis represents the luminescent intensity, measured by a luminometer and expressed as relative light unit (RLU) per mg of muscular tissue protein, wherein the luminescent intensity is used as an indicator to evaluate the transfection efficiency.
FIG. 12 presents the effects of the trehalose on the durations of transgene expression of mouse muscles after direct intramuscular injection of naked plasmid. The x-axis in FIG. 12 represents the days after the intramuscular injection, and the y-axis represents the luminescent intensity, measured by a luminometer and expressed as relative light unit (RLU) per mg of muscular tissue protein, wherein the luminescent intensity is used as an indicator to evaluate the transfection efficiency of gWiz-luciferase plasmid. […] In other words, trehalose might extend the durations of nucleic acid remaining inside the cells, and therefore prolonged the durations of transgene expression.

CHO cells [4] = experiment: In vitro transfection of CHO cells with DNA-PEI plus disaccharides, GFP by flow cytometer; assay type: cell-based, Chinese hamster; settings: PEI to DNA charge ratio 9:1
Excerpt: In the following experiments, a polyethyleneimine (PEI)-based vector is used to perform cell transfection. Further, various disaccharides are incorporated into the transfection reagent containing DNA and the vector, and the effects of disaccharides on cell transfection are observed.
(§1) FIG. 6 presents the effects of disaccharides on the transfection efficiency of in vitro cultured CHO cells that are transfected with transfection reagents containing PEI and different disaccharides. The x-axis in FIG. 6 represents the concentrations of different disaccharide in the transfection reagent, and the y-axis represents the GFP expression percentage of the transfected CHO cells detected by a flow cytometer. The GFP expression percentage of the transfected CHO cells is used as an indicator of transfection efficiency. […] The effect of disaccharides in the transfection reagent on transfection efficiency is then analyzed. […] In other words, the cell transfection efficiency is enhanced.

B16F10 = experiment: DNA-PEI transfection with trehalose, GFP expression percentage, B16F10; assay type: cell-based; settings: 20 mM trehalose
Excerpt: as §1
(§2) FIGS. 7A and & 7B show the optimal trehalose concentrations for enhancing the transfection expression mediated by DNA-PEI complexes in different cell lines. The x-axis in FIGS. 7A and 7B […] represents the concentrations of trehalose in the transfection reagent, and the y-axis represents the GFP expression percentage of the cells as an indicator of transfection efficiency The transfection procedures in these experiments of different cell lines are identical to those described previously for CHO cells in experiment 5. […] Moreover, the extents of enhancement on the transfection efficiency depend on the cell lines. […]

CHO cells [5] = experiment: MTT cellular viability of CHO cells transfected with lipid-based carriers plus disaccharides; settings: DOTAP, DOTAP/Chol, DOTAP/DOPE or LPD vector; nontransfected CHO cells = 100%
Description: as §3

CHO cells [6] = experiment: MTT cellular viability of CHO cells transfected with DNA-PEI complexes plus trehalose; assay type: cell-based, Chinese hamster; settings: PEI to DNA charge ratio 9:1; nontransfected CHO cells = 100%
Excerpt: The x-axis in FIG. 5 represents different trehalose concentrations and the y-axis represents cellular viability analyzed by the MTT assay. In the experiments, the PEI to DNA charge ratio in the transfection reagent is maintained at 9:1, and the viability of nontransfected CHO cells is set at 100%. […] In other words, the incorporation of trehalose mitigates the toxic effect of the transfection reagent.

KB = experiment: DNA-PEI transfection with trehalose, GFP expression percentage, KB; assay type: cell-based; settings: 20 mM trehalose
Excerpt: as §1, §2

293 cells = experiment: DNA-PEI transfection with trehalose, GFP expression percentage, 293; assay type: cell-based; settings: 180 mM trehalose
Excerpt: as §1, §2

MDA-MB-231 = experiment: DNA-PEI transfection with trehalose, GFP expression percentage, MDA-MB-231; assay type: cell-based; settings: 20 mM trehalose, MDA-MD-231
Excerpt: as §1, §2

COS-7 cells = experiment: DNA-PEI transfection with trehalose, GFP expression percentage, COS-7; assay type: cell-based; settings: 180 mM trehalose
Excerpt: as §1, §2

[7] = DOTAP liposomes, i.v. tail vein, 24 hour, 180 mM disaccharide
[8] = DOTAP liposomes, i.v. tail vein, 24 hour, 330 mM disaccharide

Row | Compound | effect on transfection efficiency (luminescent intensity, lung) (lung tissues; 330 mM disaccharide) | luminescent intensity in the lung tissue (RLU per mg of lung tissue protein) (lung tissues; [7]) | luminescent intensity in the lung tissue (RLU per mg of lung tissue protein) (lung tissues; [8]) | effect on transfection efficiency (GFP-positive percentage) [1] | cellular viability analyzed by the MTT assay (CHO cells [2]) | effect on transfection efficiency [3] | luminescent intensity (RLU per mg of muscular tissue protein) versus control group without disaccharides (mouse muscles; naked plasmid) | further results
1 | O=C[C@H](O)[C@@H](O)[C@H](O[C@@H]1O[C@H](CO)[C@@H](O)[C@H](O)[C@H]1O)[C@H](O)CO [cellobiose] | significant increase in transfection efficiency | increase the luminescent intensity significantly | increases noticeably | significantly enhances the transfection efficiency | improve the cellular viabilities | increases significantly |  | increase of luciferase expression of lung (lung tissues; [8]): more than 10 fold; change of transfection efficiency ([3]; 120 mM cellobiose): doubled
2 | OC[C@H]1O[C@@H](O[C@H]2[C@H](O)[C@@H](O)C(O)O[C@@H]2CO)[C@H](O)[C@@H](O)[C@H]1O (stereo partly drawn) [lactose] |  |  |  | significantly enhances the transfection efficiency | improve the cellular viabilities | increases significantly | higher luminescent intensity | 
3 | OC[C@H]1O[C@H](O[C@H]2[C@H](O)[C@@H](O)[C@H](O)O[C@@H]2CO)[C@H](O)[C@@H](O)[C@@H]1O [maltose] |  |  |  |  | improve the cellular viabilities | increases significantly |  | 
4 | OC[C@H]1O[C@@](CO)(O[C@H]2O[C@H](CO)[C@@H](O)[C@H](O)[C@H]2O)[C@@H](O)[C@@H]1O [sucrose] |  |  |  | significantly enhances the transfection efficiency | improve the cellular viabilities | increases significantly |  | 
5 | OC[C@H]1O[C@H](O[C@H]2O[C@H](CO)[C@@H](O)[C@H](O)[C@H]2O)[C@H](O)[C@@H](O)[C@@H]1O [trehalose] | significant increase in transfection efficiency | increase the luminescent intensity significantly | increases noticeably | significantly enhances the transfection efficiency |  | increases significantly | higher luminescent intensity | effect on GFP expression percentage (transfection efficiency) (CHO cells [4]): significantly increases the GFP expression percentage; GFP expression percentage (CHO cells [4]; 180 mM trehalose): about 20%; GFP expression percentage relative to absence of disaccharides (CHO cells [4]; 180 mM trehalose): about one fold higher; enhancement of percentage of GFP positive cells (B16F10): ~42%; cellular viability analyzed by the MTT assay (CHO cells [5]): improve the cellular viabilities; cellular viability analyzed by the MTT assay (CHO cells [6]): increases the cellular viability; enhancement of percentage of GFP positive cells (KB): ~13%; enhancement of percentage of GFP expressed cells (293 cells): 32%; duration of transgene expression (muscle luminescence over days after injection) (mouse muscles; naked gWiz-luciferase plasmid): higher luminescence intensities for a longer period of time; transfection efficiency versus control group without trehalose at the same amount of plasmid DNA (mouse muscles; naked plasmid, 10 mM trehalose): significantly higher; effect of trehalose concentration on transfection efficiency (muscle luminescent intensity) (mouse muscles; naked plasmid, trehalose between about 10 mM to 12.5 mM): increases significantly; enhancement of percentage of GFP positive cells (MDA-MB-231): about 50%; enhancement of percentage of GFP expressed cells (COS-7 cells): 37%
